What was measured:
[1] = tested on: MRC-5 cells; experiment: Cell viability assay (MTT); type: cell-based, human; conditions: concentrations below 50 μM, 24 hr treatment, 10% fetal calf serum
Procedure: (§1) Human HepG2 cells (ATCC HB-8065) and 293T cells (ATCC CRL-11268) were cultured in Dulbecco's modified Eagle's medium (DMEM) supplemented with 10% (v/v) fetal calf serum. Human MRC-5 cells (ATCC CCL171) and HEp-2 cells (ATCC CCL-23) were cultured in Eagle's minimum essential medium (MEM) supplemented with 10% fetal calf serum. These four human cell lines were seeded into 24-well polystyrene tissue culture plates at a cell density of 1×10^5 cells/500 μL medium per well, respectively. After incubation at 37° C. for 24 hrs, β-PGG was added into each well in various amounts (0, 6.25, 12.5, 25 and 50 μM). After 24 hr treatment of β-PGG, toxicity of β-PGG to these human cell lines was determined using the 3-(4,5-dimethylthiazol-2-yl)-2,5-diphenyltetrazolium bromide (MTT) method (Xiangshu Piao et al. (2008), supra). Additionally, toxicity of β-PGG to the 293T cells was also determined in medium containing 0% and 2% fetal calf serum. Cells treated with DMSO were used as a negative control.

[2] = tested on: HEp-2 cells; experiment: Cell viability assay (MTT); type: cell-based, human; conditions: concentrations below 50 μM, 24 hr treatment, 10% fetal calf serum
Procedure: as §1

[3] = tested on: 293T cells; experiment: Cell viability assay (MTT); type: cell-based, human
Procedure: as §1

[4] = tested on: HepG2 cells; experiment: Cell viability assay (MTT); type: cell-based, human; conditions: concentrations below 50 μM, 24 hr treatment, 10% fetal calf serum
Procedure: as §1

[5] = tested on: S. aureus SA113; experiment: Scanning electron microscopy of cells on polycarbonate discs; type: cell-based, Staphylococcus aureus; conditions: 3.13 μM, 6 hrs
Procedure: S. aureus SA113 cells were grown on polycarbonate discs in the presence or absence of 3.13 μM β-PGG. After 6 hours incubation, the discs were washed three times with PBS to remove planktonic cells and then prepared for SEM examination as described elsewhere (Guo-Xian Wei et al. (2006), supra). The samples thus prepared were observed using a Hitachi S-5000 scanning electron microscope.

[6] = tested on: S. carnosus TM300; experiment: Growth (A578) and biofilm (A595) in polystyrene plates; type: cell-based; conditions: 12.5 μM β-PGG, 6 hr
Procedure: In addition to the above S. aureus strains, S. epidermidis ATCC 35547 and S. epidermidis RP62A (ATCC 35984) were also studied for comparison.
(§2) An overnight bacterial culture was 200-fold diluted with TSBg, and a 200 μL aliquot of the diluted culture was seeded into each well of 96-well polystyrene microtiter plates and incubated at 37° C. for a designated period of time. Cell growth was determined by measuring the absorbance at 578 nm (A578) with a microtiter plate reader (SpectraMax 340, Molecular Devices). After washing with PBS twice to remove suspended cells, the wells were stained with 0.1% (w/v) crystal violet in 10% ethanol and then treated with 30% acetic acid in dH2O, followed by detecting the absorbance at 595 nm (A595) with the microtiter plate reader to quantify the amount of biofilm formed on polystyrene surface.

[7] = tested on: S. aureus SA113 (ATCC 35556); experiment: Biofilm formation on polycarbonate discs (crystal violet); type: cell-based; conditions: Staphylococcus aureus, ATCC35556, 6 hours, read-out: inhibition of biofilm formation on polycarbonate surface
Procedure: (§3) To quantify the amount of biofilm formed on polycarbonate surface, a 13-mm-diameter polycarbonate disc (Thermanox, Nalgene Nunc International, Rochester, N.Y., USA) was placed in a well of a 24-well microtiter plate, followed by the addition of 1 mL aliquot of the diluted bacterial culture. After incubation at 37° C. for a designated period of time, viable cells were washed off the surface of the polycarbonate disc with PBS and counted as described above, while the PBS-washed polycarbonate disc was subjected to crystal violet staining for biofilm quantification as described above.
To determine the effect(s) of (β-PGG upon bacterial growth and biofilm formation, β-PGG in various amounts (final concentration: 0, 1.56, 3.13, 6.25, 12.5, 25 and 50 μM) was added into the culture of S. aureus SA113 during seeding into the wells of polystyrene microtiter plates, followed by incubation at 37° C. for 6 hrs or 24 hrs. Cell growth was determined by measuring the absorbance at 578 nm, and the amount of biofilm formed on polystyrene surface was determined at 595 nm after crystal violet staining. In addition to polystyrene surface, the effect of β-PGG in inhibiting biofilm formation on polycarbonate surface was also examined according to the procedures as described in the preceding section entitled “Materials and methods.”

[8] = tested on: S. aureus SA113; experiment: Fluorescence microscopy of adhered cells after Syto 9 staining; type: cell-based, Staphylococcus aureus; conditions: 6.25 μM and 12.5 μM, 60 min
Procedure: Meanwhile, cells adhering to the polystyrene or polycarbonate surfaces were washed off with PBS at 60 min after seeding and stained with Syto 9 (Invitrogen), a green florescence dye that stains nucleic acids, followed by observation under a fluorescence microscope.
The cells adhering to the polystyrene surface and polycarbonate surface after treatment with 0 μM, 6.25 μM and 12.5 μM β-PGG for 60 min were also examined under a fluorescent microscope after Syto 9 staining.

[9] = tested on: S. aureus SA113Δica (ATCC 35556Δica::tet); experiment: Biofilm formation by ica deletion mutant on polycarbonate surface; type: cell-based, Staphylococcus aureus; conditions: 6 hrs
Procedure: as §3

[10] = tested on: S. aureus SA113Δica (ATCC 35556Δica::tet); experiment: Biofilm formation by ica deletion mutant on polystyrene surface; type: cell-based, Staphylococcus aureus; conditions: 6 hrs
Procedure: as §2

Compound: O=C(OC[C@H]1O[C@@H](OC(=O)c2cc(O)c(O)c(O)c2)[C@H](OC(=O)c2cc(O)c(O)c(O)c2)[C@@H](OC(=O)c2cc(O)c(O)c(O)c2)[C@@H]1OC(=O)c1cc(O)c(O)c(O)c1)c1cc(O)c(O)c(O)c1 [β-PGG, 1,2,3,4,6-penta-O-galloyl-β-D-glucopyranose]
- cell viability (MTT) [1]: did not affect the viability
- cell viability (MTT) [2]: did not affect the viability
- cell viability (MTT) ([3]; concentrations below 50 μM, 24 hr treatment, 10% fetal calf serum): did not affect the viability
- influence of serum concentration on toxicity ([3]; medium with 2% or 0% fetal calf serum): no influence upon the toxicity
- cell viability (MTT) [4]: did not affect the viability
- web structure (likely PIA) on polycarbonate surface by SEM [5]: caused the web structure to disappear
- Biofilm (A595) ([6]; 0 μM: 0.12 ± 0.01, non-biofilm negative control strain): 0.10 ± 0.01
- Growth (A578) ([6]; 0 μM: 0.69 ± 0.02): 0.70 ± 0.01
- inhibition at 6.25 µM ([7]; 6.25 μM): 75%
- inhibition at 12.5 µM ([7]; 12.5 μM): 96%
- inhibition at 25 µM ([7]; 25 μM): 99%
- cells attached to polystyrene and polycarbonate surfaces (Syto 9) [8]: significantly reduced the number of cells attached
- decrease of the amount of biofilm, polycarbonate surface ([9]; 3.13 μM): 67%
- decrease of the amount of biofilm, polycarbonate surface ([9]; 12.5 μM): 96%
- effect on biofilm formation by the mutant, polystyrene surface ([10]; 1.56 μM): did not affect the biofilm formation
- decrease of the amount of biofilm, polystyrene surface ([10]; 3.13 μM): 72%

Source: patent US9181290B2, “Inhibition of biofilm formation by 1,2,3,4,6-penta-O-galloyl-D-glucopyranose” (CHANG GUNG UNIVERSITY, priority 2011, dated 2015)
